Measurements published in patent US8158630B2, “Application of 2,5 -dihydroxymethyl-3,6-dimethyl pyrazine and its derivates in pharmacy” (Nanjing University of Chinese Medicine, priority 2010, dated 2012).
Values belong to the molecule of their own block, whether it stands above or below them.

How the values were obtained:
[1] = system: isolated hearts of rats; assay: Effects on the cardiac contractility of isolated hearts of rats (Langendorff perfusion); design: species or system rat; settings: 0.1 mmol/L; for heart dysrhythmia / +dp/dtmax (maximum value of left ventricular pressure increase) / Heart rate / LVEDP (left ventricular diastolic pressure) / LVSP (left ventricular systolic pressure) / −dp/dtmax (maximum value of left ventricular pressure decrease): isolated rat heart; for +dp/dtmax (maximum value of left ventricular pressure increase) / Heart rate / LVEDP (left ventricular diastolic pressure) / LVSP (left ventricular systolic pressure) / −dp/dtmax (maximum value of left ventricular pressure decrease): after administration
Method: Intraperitoneal injection of 1.2 g/kg urethane is carried out on rats and the hearts are collected. After the hearts are rinsed and cut in 100% oxygen saturated physiological saline at 0° C., they are connected to modified Langendorff heart perfusion equipments to couduct retrogressive perfusion via the aorta. The perfusate (in mmol/L) is NaCl 117, KCl 5.7, CaCl2 1.8, NaHCO3 4.4, NaH2PO4 1.5, MgCl2 1.7, HEPES 20, Glucose 11, Creatine 10, Taurine 20, and NaOH is used to adjust the pH value to 7.3. The probe of the pressure receptor is inserted into the left ventricle via the left auricle, and BioAmp amplifier is used to record the left ventricular pressure, and the electrocardiogram is measured at the same time.

[2] = system: normal rats; assay: Effects on heart functions and hemodynamics of normal rats, intravenous administration; assay type: in vivo, rat; settings: for LVEDP / LVSP / +dp/dtmax / −dp/dtmax: normal rats, within one minute after administration, n = 10; for +dp/dtmax / −dp/dtmax: in mmHg/s (unit assumed)
Method: After the rats are paralysed with 20% ethyl urethane (urethane) (1 g/kg) and fixed on a thermostatical operation table on their backs, needle-electrodes for electrocardiogram are subcutaneously inserted from their extremities and the lead II […] (ECG) and the heart rate (HR) are measured by inputting into the multiplying channel device. The right common carotid artery is isolated from the inner side of sternocleidomastoid muscle after the […] and temperature (37° C.) become stable, and the right common carotid artery is ligated at its head end and left ventricular cannulation is carried out. It is connected with the polygraph via a pressure transducer to measure the heart function indexes of left ventricle, in the meantime, the right femoral vein is isolated and venous cannulation is carried out for the intravenous administration, and the non-inserted end is connected to a syringe that is filled with 40 IU/mL heparin physiological saline, the multi-channel physiological signal acquisition and processing system is used to record the data. After the measured indexes become stable, the data at one minute before the drug administration are recorded as the blank control, and Liguzinediol is dissolved in physiological saline and then use 5, 10 and 20 mg/kg respectively as the low, mediate and high dosage groups, and the results within one minute after the intravenous administration are shown in Table 2. The heart rate aberration that is induced by Liguzinediol is not found in the three dosage groups after administration.

- heart dysrhythmia [1]: no heart dysrhythmia is found
Compound: Cc1nc(CO)c(C)nc1CO [Compound 2, 2,5-dihydroxymethyl-3,6-dimethyl pyrazine]
- cardiac contractility of isolated hearts of rats [1]: significantly increase
- +dp/dtmax (maximum value of left ventricular pressure increase) [1]: 790.3 ± 251.6
- Heart rate [1]: 154.4 ± 28.8^Δ
- LVEDP (left ventricular diastolic pressure) [1]: −13.0 ± 2.3
- LVSP (left ventricular systolic pressure) [1]: 26.9 ± 5.9
- −dp/dtmax (maximum value of left ventricular pressure decrease) [1]: −763.5 ± 188.0
- LVEDP ([2]; 5 mg/kg i.v.): 7.9 ± 6.3
- LVSP ([2]; 5 mg/kg i.v.): 132.7 ± 9.1
- +dp/dtmax ([2]; 5 mg/kg i.v.): 12027 ± 1388
- −dp/dtmax ([2]; 5 mg/kg i.v.): −10238 ± 1247
- LVEDP ([2]; 10 mg/kg i.v.): 6.9 ± 6.1
- LVSP ([2]; 10 mg/kg i.v.): 135.7 ± 10.9
- +dp/dtmax ([2]; 10 mg/kg i.v.): 11484 ± 1410
- −dp/dtmax ([2]; 10 mg/kg i.v.): −9667 ± 670
- LVEDP ([2]; 20 mg/kg i.v.): 6.3 ± 4.8
- LVSP ([2]; 20 mg/kg i.v.): 139.7 ± 4.6
- +dp/dtmax ([2]; 20 mg/kg i.v.): 12347 ± 1030
- −dp/dtmax ([2]; 20 mg/kg i.v.): −9964 ± 1045
- left ventricular contraction and diastolic function of rat heart ([2]; rats, 5, 10 and 20 mg/kg i.v.): significantly increase the left ventricular contraction and improve the diastolic function
- heart rate aberration ([2]; rats, 5, 10 and 20 mg/kg i.v., after administration): not found

Compound: CC(=O)OCc1nc(C)c(COC(C)=O)nc1C [Compound 1, 2,5-diacetoxymethyl-3,6-dimethyl pyrazine]
- cardiac contractility of isolated hearts of rats [1]: significantly increase
- heart dysrhythmia [1]: no heart dysrhythmia is found
- +dp/dtmax (maximum value of left ventricular pressure increase) [1]: 831.9 ± 268.2
- Heart rate [1]: 191.6 ± 58.0^Δ
- LVEDP (left ventricular diastolic pressure) [1]: −14.4 ± 7.2
- LVSP (left ventricular systolic pressure) [1]: 26.1 ± 12.5
- −dp/dtmax (maximum value of left ventricular pressure decrease) [1]: −884.9 ± 347.0
